Measured values published in ChEMBL document CHEMBL2413072, “Synthesis and in vitro anticancer studies of novel C-2 arylidene congeners of lantadenes” (2013).

Key:
Type in all cases: functional
KM12 = test: Growth inhibition of human KM12 cells assessed as cell growth at 10^-7 M by sulforhodamine B assay; details: read-out: Activity
RXF 393 = test: Growth inhibition of human RXF393 cells assessed as cell growth at 10^-7 M by sulforhodamine B assay; details: read-out: Activity
NCI-H522 = test: Growth inhibition of human NCI-H522 cells assessed as cell growth at 10^-6 M by sulforhodamine B assay; details: read-out: Activity
SF-539 = test: Growth inhibition of human SF539 cells by sulforhodamine B assay
COLO 205 [1] = test: Growth inhibition of human COLO205 cells assessed as cell growth at 10^-7 M by sulforhodamine B assay; details: read-out: Activity
COLO 205 [2] = test: Growth inhibition of human COLO205 cells assessed as cell growth at 10^-6 M by sulforhodamine B assay; details: read-out: Activity
[3] = Growth inhibition of human Hs 578T cells assessed as cell growth at 10^-8 M by sulforhodamine B assay; details: read-out: Activity
A549 = test: Growth inhibition of human A549/ATCC cells assessed as cell growth at 10^-4 M by sulforhodamine B assay; details: read-out: Activity
MCF7 = test: Growth inhibition of human MCF7 cells assessed as cell growth at 10^-7 M by sulforhodamine B assay; details: read-out: Activity
HL-60(TB) = test: Growth inhibition of human HL-60(TB) cells assessed as cell growth at 10^-7 M by sulforhodamine B assay; details: read-out: Activity
SR = test: Growth inhibition of human SR cells by sulforhodamine B assay
SNB-19 [4] = test: Growth inhibition of human SNB19 cells assessed as cell growth at 10^-4 M by sulforhodamine B assay; details: read-out: Activity
UACC-62 = test: Growth inhibition of human UACC62 cells assessed as cell growth at 10^-6 M by sulforhodamine B assay; details: read-out: Activity
SW-620 [5] = test: Growth inhibition of human SW620 cells assessed as cell growth at 10^-6 M by sulforhodamine B assay; details: read-out: Activity
CCRF-CEM = test: Growth inhibition of human CCRF-CEM cells assessed as cell growth at 10^-8 M by sulforhodamine B assay; details: read-out: Activity
MDA-MB-435 = test: Growth inhibition of human MDA-MB-435 cells by sulforhodamine B assay
Malme-3M [6] = test: Growth inhibition of human MALME-3M cells assessed as cell growth at 10^-6 M by sulforhodamine B assay; details: read-out: Activity
U-251 [7] = test: Growth inhibition of human U251 cells assessed as cell growth at 10^-8 M by sulforhodamine B assay; details: read-out: Activity
Malme-3M [8] = test: Growth inhibition of human MALME-3M cells by sulforhodamine B assay
ACHN = test: Growth inhibition of human ACHN cells assessed as cell growth at 10^-6 M by sulforhodamine B assay; details: read-out: Activity
SW-620 [9] = test: Growth inhibition of human SW620 cells assessed as cell growth at 10^-7 M by sulforhodamine B assay; details: read-out: Activity
SK-MEL-28 = test: Growth inhibition of human SK-MEL-28 cells assessed as cell growth at 10^-4 M by sulforhodamine B assay; details: read-out: Activity
SNB-75 [10] = test: Growth inhibition of human SNB75 cells assessed as cell growth at 10^-7 M by sulforhodamine B assay; details: read-out: Activity
SNB-75 [11] = test: Growth inhibition of human SNB75 cells assessed as cell growth at 10^-4 M by sulforhodamine B assay; details: read-out: Activity
HCT-15 = test: Growth inhibition of human HCT15 cells assessed as cell growth at 10^-8 M by sulforhodamine B assay; details: read-out: Activity
OVCAR-8 = test: Growth inhibition of human OVCAR8 cells assessed as cell growth at 10^-6 M by sulforhodamine B assay; details: read-out: Activity
[12] = Growth inhibition of human HCC2998 cells assessed as cell growth at 10^-7 M by sulforhodamine B assay; details: HCC 2998, read-out: Activity
NCI-H23 = test: Growth inhibition of human NCI-H23 cells assessed as cell growth at 10^-7 M by sulforhodamine B assay; details: read-out: Activity
HOP-62 = test: Growth inhibition of human HOP62 cells assessed as cell growth at 10^-7 M by sulforhodamine B assay; details: read-out: Activity
MDA-MB-468 = test: Growth inhibition of human MDA-MB-468 cells assessed as cell growth at 10^-7 M by sulforhodamine B assay; details: read-out: Activity
SK-OV-3 [13] = test: Growth inhibition of human SKOV3 cells assessed as cell growth at 10^-7 M by sulforhodamine B assay; details: read-out: Activity
SK-MEL-5 = test: Growth inhibition of human SK-MEL-5 cells by sulforhodamine B assay
SNB-19 [14] = test: Growth inhibition of human SNB19 cells by sulforhodamine B assay
U-251 [15] = test: Growth inhibition of human U251 cells assessed as cell growth at 10^-4 M by sulforhodamine B assay; details: read-out: Activity
IGROV-1 = test: Growth inhibition of human IGROV1 cells assessed as cell growth at 10^-4 M by sulforhodamine B assay; details: read-out: Activity
[16] = Growth inhibition of human NCI-ADR-RES cells assessed as cell growth at 10^-6 M by sulforhodamine B assay; details: read-out: Activity
SF-295 = test: Growth inhibition of human SF295 cells assessed as cell growth at 10^-4 M by sulforhodamine B assay; details: read-out: Activity
OVCAR-3 = test: Growth inhibition of human OVCAR3 cells assessed as cell growth at 10^-6 M by sulforhodamine B assay; details: read-out: Activity
SK-OV-3 [17] = test: Growth inhibition of human SKOV3 cells by sulforhodamine B assay
OVCAR-5 = test: Growth inhibition of human OVCAR5 cells assessed as cell growth at 10^-4 M by sulforhodamine B assay; details: read-out: Activity
SK-OV-3 [18] = test: Growth inhibition of human SKOV3 cells assessed as cell growth at 10^-4 M by sulforhodamine B assay; details: read-out: Activity
[19] = read-out: LC50 (the source's name)
[20] = read-out: pLC50 (the source's name) (converted)

C/C=C(/C)C(=O)O[C@@H]1CC(C)(C)C[C@H]2C3=CC[C@@H]4[C@@]5(C)CC[C@H](O)C(C)(C)[C@@H]5CC[C@@]4(C)[C@]3(C)CC[C@@]12C(=O)O [Reduced Lantadene A] gave a growth at 0.1 µM (KM12) of 103%, a growth at 0.1 µM (RXF 393) of 95% and a growth at 1 µM (NCI-H522) of 93%. For the same compound, the GI50 (SF-539; read-out: GI50) was 3.37 µM, the CC50 (SF-539; [19]) was 56.3 µM and the TGI (SF-539; read-out: TGI) was 11.4 µM. The GI50 (SF-539; read-out: pGI50 (converted)) was 3.39 µM, the CC50 (SF-539; [20]) was 56.2 µM and the TGI (SF-539; read-out: pTGI (converted)) was 11.5 µM. The growth at 0.1 µM (COLO 205 [1]) was 107%, the growth at 1 µM (COLO 205 [2]) was 104% and the growth at 0.01 µM [3] was 94%. For the same compound, the growth at 100 µM (A549) was -59%, the growth at 0.1 µM (MCF7) was 96% and the growth at 0.1 µM (HL-60(TB)) was 110%. For the same compound, the GI50 (SR; read-out: GI50) was 2140 nM, the CC50 (SR; [19]) was > 100 µM and the TGI (SR; read-out: TGI) was 5.63 µM. The GI50 (SR; read-out: pGI50 (converted)) was 2140 nM, the CC50 (SR; [20]) was > 100 µM and the TGI (SR; read-out: pTGI (converted)) was 5.62 µM. The growth at 100 µM (SNB-19 [4]) was -40%, the growth at 1 µM (UACC-62) was 78% and the growth at 1 µM (SW-620 [5]) was 90%. The growth at 0.01 µM (CCRF-CEM) was 98%, the GI50 (MDA-MB-435; read-out: GI50) was 2210 nM and the CC50 (MDA-MB-435; [19]) was > 100 µM. For the same compound, the TGI (MDA-MB-435; read-out: TGI) was 5.9 µM, the GI50 (MDA-MB-435; read-out: pGI50 (converted)) was 2190 nM and the CC50 (MDA-MB-435; [20]) was > 100 µM. It also gave a TGI (MDA-MB-435; read-out: pTGI (converted)) of 5.89 µM, a growth at 1 µM (Malme-3M [6]) of 92% and a growth at 0.01 µM (U-251 [7]) of 96%. For the same compound, the GI50 (Malme-3M [8]; read-out: GI50) was 1830 nM, the CC50 (Malme-3M [8]; [19]) was 7.7 µM and the TGI (Malme-3M [8]; read-out: TGI) was 3.75 µM. The GI50 (Malme-3M [8]; read-out: pGI50 (converted)) was 1820 nM, the CC50 (Malme-3M [8]; [20]) was 7.76 µM and the TGI (Malme-3M [8]; read-out: pTGI (converted)) was 3.72 µM. It also gave a growth at 1 µM (ACHN) of 87%, a growth at 0.1 µM (SW-620 [9]) of 95% and a growth at 100 µM (SK-MEL-28) of -41%. For the same compound, the growth at 0.1 µM (SNB-75 [10]) was 78%, the growth at 100 µM (SNB-75 [11]) was -47% and the growth at 0.01 µM (HCT-15) was 100%. It also gave a growth at 1 µM (OVCAR-8) of 97%, a growth at 0.1 µM [12] of 104% and a growth at 0.1 µM (NCI-H23) of 99%. It also gave a growth at 0.1 µM (HOP-62) of 95%, a growth at 0.1 µM (MDA-MB-468) of 86% and a growth at 0.1 µM (SK-OV-3 [13]) of 102%. It also gave a GI50 (SK-MEL-5; read-out: GI50) of 1800 nM, a CC50 (SK-MEL-5; [19]) of 17.2 µM and a TGI (SK-MEL-5; read-out: TGI) of 4.39 µM. It also gave a GI50 (SK-MEL-5; read-out: pGI50 (converted)) of 1780 nM, a CC50 (SK-MEL-5; [20]) of 17.4 µM and a TGI (SK-MEL-5; read-out: pTGI (converted)) of 4.37 µM. For the same compound, the GI50 (SNB-19 [14]; read-out: GI50) was 1650 nM, the TGI (SNB-19 [14]; read-out: TGI) was 3.37 µM and the GI50 (SNB-19 [14]; read-out: pGI50 (converted)) was 1660 nM. It also gave a TGI (SNB-19 [14]; read-out: pTGI (converted)) of 3.39 µM, a growth at 100 µM (U-251 [15]) of -52% and a growth at 100 µM (IGROV-1) of -58%. It also gave a growth at 1 µM [16] of 96%, a growth at 100 µM (SF-295) of -57% and a growth at 1 µM (OVCAR-3) of 104%. The GI50 (SK-OV-3 [17]; read-out: GI50) was 1870 nM, the GI50 (SK-OV-3 [17]; read-out: pGI50 (converted)) was 1860 nM and the growth at 100 µM (OVCAR-5) was -73%. For the same compound, the growth at 100 µM (SK-OV-3 [18]) was 4%.
